Laboratory results taken from article PMC5218480 (PLoS ONE, 2017).

System: MV-4-11 cells
Test: Gene expression microarray analysis (Affymetrix PrimeView) and GSEA
Format: cell-based, human
Parameters: RFU PODN (11730768_x_at) / Fold change /veh PODN (11730768_x_at) / RFU LINC00158 (11744669_a_at) / Fold change /veh LINC00158 (11744669_a_at) / RFU DUSP10 (11751237_a_at) / Fold change /veh DUSP10 (11751237_a_at) / RFU ID3 (11757404_x_at) / Fold change /veh ID3 (11757404_x_at) / RFU PLEKHG5 (11737974_s_at) / Fold change /veh PLEKHG5 (11737974_s_at) / RFU LRRC4B (11730491_at) / Fold change /veh LRRC4B (11730491_at) / RFU GIMAP4 (11747438_a_at) / Fold change /veh GIMAP4 (11747438_a_at) / RFU KRT8 (11758183_x_at) / Fold change /veh KRT8 (11758183_x_at) / RFU CNN1 (11734310_a_at) / Fold change /veh CNN1 (11734310_a_at) / RFU VPS37D (11726825_at) / Fold change /veh VPS37D (11726825_at) / RFU C10orf10 (11716522_x_at) / Fold change /veh C10orf10 (11716522_x_at) / RFU KIR2DL2 /// KIR2DL4 /// KIR2DL5A /// KIR2DL5B /// KIR2DS1 /// KIR2DS2 /// KIR2DS3 /// KIR2DS4 /// KIR3DL3 /// KIR3DL3 /// KIR3DS1 (11738374_at) / Fold change /veh KIR2DL2 /// KIR2DL4 /// KIR2DL5A /// KIR2DL5B /// KIR2DS1 /// KIR2DS2 /// KIR2DS3 /// KIR2DS4 /// KIR3DL3 /// KIR3DL3 /// KIR3DS1 (11738374_at) / RFU C1QL1 (11718748_at) / Fold change /veh C1QL1 (11718748_at) / RFU TMPRSS4 (11747572_a_at) / Fold change /veh TMPRSS4 (11747572_a_at) / RFU HAMP (11756126_x_at) / Fold change /veh HAMP (11756126_x_at) / RFU RNFT2 (11725882_a_at) / Fold change /veh RNFT2 (11725882_a_at) / RFU NR4A2 (11747474_a_at) / Fold change /veh NR4A2 (11747474_a_at) / RFU ABCC12 (11746883_a_at) / Fold change /veh ABCC12 (11746883_a_at) / RFU TMEM136 (11760407_x_at) / Fold change /veh TMEM136 (11760407_x_at) / RFU CLDN22 /// WWC2 (11732394_at) / Fold change /veh CLDN22 /// WWC2 (11732394_at) / RFU HLA-DPB1 (11760878_x_at) / Fold change /veh HLA-DPB1 (11760878_x_at) / RFU SPINT1 (11716480_a_at) / Fold change /veh SPINT1 (11716480_a_at) / RFU GAP43 (11754022_s_at) / Fold change /veh GAP43 (11754022_s_at) / RFU A4GNT (11735810_at) / Fold change /veh A4GNT (11735810_at) / RFU PRB3 (11715151_x_at) / Fold change /veh PRB3 (11715151_x_at) / RFU TUBB4B (11761932_at) / Fold change /veh TUBB4B (11761932_at) / RFU CAPN14 (11732068_a_at) / Fold change /veh CAPN14 (11732068_a_at) / RFU TMCC2 (11721928_a_at) / Fold change /veh TMCC2 (11721928_a_at) / RFU IRGQ (11745062_a_at) / Fold change /veh IRGQ (11745062_a_at) / RFU FAM174B (11720279_a_at) / Fold change /veh FAM174B (11720279_a_at) / RFU TMPRSS4 (11748680_a_at) / Fold change /veh TMPRSS4 (11748680_a_at) / RFU FAM212B (11763350_a_at) / Fold change /veh FAM212B (11763350_a_at) / RFU PLEKHG5 (11743358_a_at) / Fold change /veh PLEKHG5 (11743358_a_at) / RFU ZSCAN30 (11745921_a_at) / Fold change /veh ZSCAN30 (11745921_a_at) / RFU CMKLR1 (11741424_a_at) / Fold change /veh CMKLR1 (11741424_a_at) / RFU LOC101060620 /// MAPK8IP1 (11723275_at) / Fold change /veh LOC101060620 /// MAPK8IP1 (11723275_at) / RFU SPTSSB (11747773_x_at) / Fold change /veh SPTSSB (11747773_x_at) / RFU PRSS12 (11739890_at) / Fold change /veh PRSS12 (11739890_at) / RFU BIN1 (11741810_x_at) / Fold change /veh BIN1 (11741810_x_at) / RFU WNT11 (11732464_a_at) / Fold change /veh WNT11 (11732464_a_at) / RFU C10orf10 (11716521_a_at) / Fold change /veh C10orf10 (11716521_a_at) / RFU C5orf56 (11738089_at) / Fold change /veh C5orf56 (11738089_at) / RFU CYB561 (11721691_x_at) / Fold change /veh CYB561 (11721691_x_at) / RFU ANKRD19P (11752326_a_at) / Fold change /veh ANKRD19P (11752326_a_at) / RFU OR2T12 /// OR2T33 /// OR2T8 (11738714_s_at) / Fold change /veh OR2T12 /// OR2T33 /// OR2T8 (11738714_s_at) / RFU VCAN (11748164_a_at) / Fold change /veh VCAN (11748164_a_at) / RFU JSRP1 (11732532_at) / Fold change /veh JSRP1 (11732532_at) / RFU KRTAP10-11 (11738290_x_at) / Fold change /veh KRTAP10-11 (11738290_x_at) / RFU MYO3A (11730013_a_at) / Fold change /veh MYO3A (11730013_a_at) / RFU EBF3 (11725865_a_at) / Fold change /veh EBF3 (11725865_a_at) / RFU CAMK2N1 (11719241_x_at) / Fold change /veh CAMK2N1 (11719241_x_at) / RFU C5orf56 (11738088_a_at) / Fold change /veh C5orf56 (11738088_a_at) / RFU OLFML3 (11715873_a_at) / Fold change /veh OLFML3 (11715873_a_at) / RFU LOC100653217 /// NTM (11731650_a_at) / Fold change /veh LOC100653217 /// NTM (11731650_a_at) / RFU MAPK11 (11762145_a_at) / Fold change /veh MAPK11 (11762145_a_at) / RFU FIZ1 (11724087_x_at) / Fold change /veh FIZ1 (11724087_x_at) / RFU OASL (11726364_x_at) / Fold change /veh OASL (11726364_x_at) / RFU SOX15 (11748057_x_at) / Fold change /veh SOX15 (11748057_x_at) / RFU CD79A (11719716_a_at) / Fold change /veh CD79A (11719716_a_at) / RFU HIST1H1D (11736915_at) / Fold change /veh HIST1H1D (11736915_at) / RFU CASKIN2 (11723855_a_at) / Fold change /veh CASKIN2 (11723855_a_at) / RFU LOC730098 (11760151_x_at) / Fold change /veh LOC730098 (11760151_x_at) / RFU OR4N2 (11742367_at) / Fold change /veh OR4N2 (11742367_at) / RFU PRRT2 (11749266_a_at) / Fold change /veh PRRT2 (11749266_a_at) / RFU SNX32 (11753110_a_at) / Fold change /veh SNX32 (11753110_a_at) / RFU CDHR5 (11726645_a_at) / Fold change /veh CDHR5 (11726645_a_at) / RFU RCAN1 (11760418_a_at) / Fold change /veh RCAN1 (11760418_a_at) / RFU FAM167A (11723789_a_at) / Fold change /veh FAM167A (11723789_a_at) / RFU FAM26E (11764081_at) / Fold change /veh FAM26E (11764081_at) / RFU ISYNA1 (11749810_s_at) / Fold change /veh ISYNA1 (11749810_s_at) / RFU ACY1 (11761880_at) / Fold change /veh ACY1 (11761880_at) / RFU 11764098_at / Fold change /veh 11764098_at / RFU SAMD14 (11745864_x_at) / Fold change /veh SAMD14 (11745864_x_at) / RFU NPB (11741838_a_at) / Fold change /veh NPB (11741838_a_at) / RFU TMPRSS6 (11731388_a_at) / Fold change /veh TMPRSS6 (11731388_a_at) / RFU KRTAP10-2 (11738614_at) / Fold change /veh KRTAP10-2 (11738614_at) / RFU ARHGAP8 /// PRR5-ARHGAP8 (11727945_x_at) / Fold change /veh ARHGAP8 /// PRR5-ARHGAP8 (11727945_x_at) / RFU KRTAP5-7 /// NADSYN1 (11734609_at) / Fold change /veh KRTAP5-7 /// NADSYN1 (11734609_at) / RFU RASL12 (11751679_a_at) / Fold change /veh RASL12 (11751679_a_at) / RFU CDKN2B (11736163_a_at) / Fold change /veh CDKN2B (11736163_a_at) / RFU PRF1 (11729649_at) / Fold change /veh PRF1 (11729649_at) / RFU, ZNF638 /// ZNF638-IT1 / Fold change vs veh, ZNF638 /// ZNF638-IT1 / RFU, PANK3 / Fold change vs veh, PANK3 / RFU, SH3YL1 / Fold change vs veh, SH3YL1 / RFU, ZEB2 / Fold change vs veh, ZEB2 / RFU, NRIP1 / Fold change vs veh, NRIP1 / RFU, PTTG1IP / Fold change vs veh, PTTG1IP / RFU, CAPN2 / Fold change vs veh, CAPN2 / RFU, MED14 / Fold change vs veh, MED14 / RFU, SNORA58 / Fold change vs veh, SNORA58 / RFU, C1orf63 / Fold change vs veh, C1orf63 / RFU, LRRFIP1 / Fold change vs veh, LRRFIP1 / RFU, NDUFAF7 / Fold change vs veh, NDUFAF7 / RFU, SLC12A2 / Fold change vs veh, SLC12A2 / RFU, IBTK / Fold change vs veh, IBTK / RFU, ESF1 / Fold change vs veh, ESF1 / Fold change vs veh, TMEM50B / RFU, TAOK1 / Fold change vs veh, TAOK1 / RFU, ACBD3 / Fold change vs veh, ACBD3 / RFU, TMA16 / Fold change vs veh, TMA16 / RFU, RWDD3 / Fold change vs veh, RWDD3 / RFU, BCAT1 / Fold change vs veh, BCAT1 / RFU, EDEM3 / Fold change vs veh, EDEM3 / RFU, TMEM33 / Fold change vs veh, TMEM33 / RFU, WDR75 / Fold change vs veh, WDR75 / RFU, AHCTF1 / Fold change vs veh, AHCTF1 / RFU, TFRC / Fold change vs veh, TFRC / RFU, ZDHHC17 / Fold change vs veh, ZDHHC17 / RFU, NOM1 / Fold change vs veh, NOM1 / RFU, ARL8B / Fold change vs veh, ARL8B / RFU, ZBTB11 / Fold change vs veh, ZBTB11 / RFU, TAMM41 / Fold change vs veh, TAMM41 / RFU, KIAA1704 /// LOC100996395 / Fold change vs veh, KIAA1704 /// LOC100996395 / RFU, ING1 / Fold change vs veh, ING1 / RFU, TRMT61B / Fold change vs veh, TRMT61B / RFU, FUBP3 / Fold change vs veh, FUBP3 / RFU, TP53 / Fold change vs veh, TP53 / RFU, TNKS2 / Fold change vs veh, TNKS2 / RFU, ZFP14 / Fold change vs veh, ZFP14 / RFU, ACTR2 / Fold change vs veh, ACTR2 / RFU, PPP3R1 / Fold change vs veh, PPP3R1 / RFU, PIK3R1 / Fold change vs veh, PIK3R1 / RFU, HNRNPA1 / Fold change vs veh, HNRNPA1 / RFU, RNF170 / Fold change vs veh, RNF170 / RFU, ZNF28 / Fold change vs veh, ZNF28 / RFU, RNGTT / Fold change vs veh, RNGTT / RFU, OGT / Fold change vs veh, OGT / RFU, BRD1 / Fold change vs veh, BRD1 / RFU, MARS / Fold change vs veh, MARS / RFU, ZNF655 / Fold change vs veh, ZNF655 / RFU, FAHD1 / Fold change vs veh, FAHD1 / RFU, BDP1 / Fold change vs veh, BDP1 / RFU, LRRCC1 / Fold change vs veh, LRRCC1 / RFU, ARID1A / Fold change vs veh, ARID1A / RFU, ZNF146 / Fold change vs veh, ZNF146 / RFU, ZNF330 / Fold change vs veh, ZNF330 / RFU, GPN3 / Fold change vs veh, GPN3 / RFU, C9orf123 / Fold change vs veh, C9orf123 / RFU, N4BP2L2 / Fold change vs veh, N4BP2L2 / RFU, ARFIP1 / Fold change vs veh, ARFIP1 / RFU, FAM179B / Fold change vs veh, FAM179B / RFU, BCL10 / Fold change vs veh, BCL10 / RFU, UHRF1BP1L / Fold change vs veh, UHRF1BP1L / RFU, BET1 / Fold change vs veh, BET1 / RFU, CNOT2 / Fold change vs veh, CNOT2 / RFU, ZNF268 / Fold change vs veh, ZNF268 / Fold change vs veh, ZNF507 / RFU, DGCR2 / Fold change vs veh, DGCR2 / RFU, WDSUB1 / Fold change vs veh, WDSUB1 / Fold change vs veh, HSP90B1 /// MIR3652 / RFU, ADSS / Fold change vs veh, ADSS / RFU, GK / Fold change vs veh, GK / RFU, ZNF148 / Fold change vs veh, ZNF148 / RFU, TAF9 / Fold change vs veh, TAF9 / RFU, SLC1A5 / Fold change vs veh, SLC1A5 / RFU, SLMO2 / Fold change vs veh, SLMO2 / RFU, ABCC4 / Fold change vs veh, ABCC4 / RFU, LOC101060439 /// RAP1B / Fold change vs veh, LOC101060439 /// RAP1B / RFU, RFX7 / Fold change vs veh, RFX7 / RFU, GTPBP10 / Fold change vs veh, GTPBP10 / RFU, CNEP1R1 / Fold change vs veh, CNEP1R1 / RFU, BIVM-ERCC5 /// ERCC5 / Fold change vs veh, BIVM-ERCC5 /// ERCC5 / RFU, ILF3 / Fold change vs veh, ILF3 / RFU 11762660_at / Fold change /veh 11762660_at / RFU VCAN (11757783_s_at) / Fold change /veh VCAN (11757783_s_at) / RFU DDX43 (11728927_at) / Fold change /veh DDX43 (11728927_at) / RFU KRT8 (11758188_x_at) / Fold change /veh KRT8 (11758188_x_at) / RFU NKD1 (11759106_at) / Fold change /veh NKD1 (11759106_at) / RFU SRD5A1 (11742802_a_at) / Fold change /veh SRD5A1 (11742802_a_at) / RFU TPSAB1 /// TPSB2 (11721975_s_at) / Fold change /veh TPSAB1 /// TPSB2 (11721975_s_at) / RFU GSTM3 (11746129_a_at) / Fold change /veh GSTM3 (11746129_a_at) / RFU IL23R (11737362_x_at) / Fold change /veh IL23R (11737362_x_at) / RFU TMEM51 (11727254_a_at) / Fold change /veh TMEM51 (11727254_a_at) / RFU PIWIL2 (11732686_x_at) / Fold change /veh PIWIL2 (11732686_x_at) / RFU ORM1 (11744905_x_at) / Fold change /veh ORM1 (11744905_x_at) / RFU CCDC152 (11743942_at) / Fold change /veh CCDC152 (11743942_at) / RFU ECM1 (11717891_a_at) / Fold change /veh ECM1 (11717891_a_at) / RFU IL23R (11748794_a_at) / Fold change /veh IL23R (11748794_a_at) / RFU TNFAIP8L3 (11732012_x_at) / Fold change /veh TNFAIP8L3 (11732012_x_at) / RFU MBOAT4 (11741988_at) / Fold change /veh MBOAT4 (11741988_at) / RFU 11764193_at / Fold change /veh 11764193_at / RFU TMEM53 (11763286_at) / Fold change /veh TMEM53 (11763286_at) / RFU MAGEB2 (11727129_at) / Fold change /veh MAGEB2 (11727129_at) / RFU TMEM200A (11744735_a_at) / Fold change /veh TMEM200A (11744735_a_at) / RFU CCDC152 (11751479_a_at) / Fold change /veh CCDC152 (11751479_a_at) / RFU FAM211A (11726209_a_at) / Fold change /veh FAM211A (11726209_a_at) / RFU RGS16 (11746705_a_at) / Fold change /veh RGS16 (11746705_a_at) / RFU VCAN (11755009_s_at) / Fold change /veh VCAN (11755009_s_at) / RFU RHOB (11743442_s_at) / Fold change /veh RHOB (11743442_s_at) / RFU RGS16 (11720943_a_at) / Fold change /veh RGS16 (11720943_a_at) / RFU RGS16 (11720944_at) / Fold change /veh RGS16 (11720944_at) / RFU, VPS4B / Fold change vs veh, VPS4B / RFU, CREB1 / Fold change vs veh, CREB1 / RFU, DNAJC13 / Fold change vs veh, DNAJC13 / RFU, GNAQ / Fold change vs veh, GNAQ / RFU, CDK5R1 / Fold change vs veh, CDK5R1 / RFU, ZRANB3 / Fold change vs veh, ZRANB3 / RFU, CUL4A / Fold change vs veh, CUL4A / RFU, CCNY / Fold change vs veh, CCNY / RFU, UFL1 / Fold change vs veh, UFL1 / RFU, COG3 / Fold change vs veh, COG3 / RFU, DIAPH2 / Fold change vs veh, DIAPH2 / RFU, SKA2 / Fold change vs veh, SKA2 / RFU, AFF3 / Fold change vs veh, AFF3 / RFU, LMF1 / Fold change vs veh, LMF1 / RFU, IPO11 / Fold change vs veh, IPO11 / RFU, DFFB / Fold change vs veh, DFFB / RFU, FOXP1 / Fold change vs veh, FOXP1 / RFU, CARD8 / Fold change vs veh, CARD8 / RFU, STRN3 / Fold change vs veh, STRN3 / RFU, ADK / Fold change vs veh, ADK / RFU, RASSF2 / Fold change vs veh, RASSF2 / RFU, WIPF1 / Fold change vs veh, WIPF1 / RFU, LARP1B / Fold change vs veh, LARP1B / RFU, RASA1 / Fold change vs veh, RASA1 / RFU, RB1 / Fold change vs veh, RB1 / RFU, PPFIA1 / Fold change vs veh, PPFIA1 / RFU, MAT2A / Fold change vs veh, MAT2A / RFU, CCT5 / Fold change vs veh, CCT5 / RFU, WDR92 / Fold change vs veh, WDR92 / RFU, CUX1 / Fold change vs veh, CUX1 / RFU, TTC7A / Fold change vs veh, TTC7A / RFU, TMEM135 / Fold change vs veh, TMEM135 / RFU, DEPTOR / Fold change vs veh, DEPTOR / RFU, CPM / Fold change vs veh, CPM / RFU, DNAJB6 / Fold change vs veh, DNAJB6 / RFU, CACNA2D3 / Fold change vs veh, CACNA2D3 / RFU, DTX4 / Fold change vs veh, DTX4 / RFU, TFCP2 / Fold change vs veh, TFCP2 / RFU, GMCL1 /// GMCL1P1 / Fold change vs veh, GMCL1 /// GMCL1P1 / RFU, AEBP2 / Fold change vs veh, AEBP2 / RFU, SNHG1 /// SNORD22 /// SNORD25 /// SNORD26 /// SNORD27 /// SNORD28 /// SNORD29 /// SNORD31 / Fold change vs veh, SNHG1 /// SNORD22 /// SNORD25 /// SNORD26 /// SNORD27 /// SNORD28 /// SNORD29 /// SNORD31 / Fold change (Aza/veh), C12orf56 (ProbeSet 11735607_a_at) / Fold change (ACY-1035/veh), C12orf56 (ProbeSet 11735607_a_at) / Fold change (Aza/veh), FGFR1OP (ProbeSet 11751329_s_at) / Fold change (ACY-1035/veh), FGFR1OP (ProbeSet 11751329_s_at) / Fold change (Aza/veh), VPS36 (ProbeSet 11739960_a_at) / Fold change (ACY-1035/veh), VPS36 (ProbeSet 11739960_a_at) / RFU SYPL1 (11715823_x_at) / Fold change /veh SYPL1 (11715823_x_at) / RFU IGFBP7 (11715501_s_at) / Fold change /veh IGFBP7 (11715501_s_at) / RFU REEP3 (11722064_at) / Fold change /veh REEP3 (11722064_at) / RFU IGLL1 (11728026_x_at) / Fold change /veh IGLL1 (11728026_x_at): dose or concentration left out as unconfirmed
Settings: MV-4-11 cells, 48 hours

Nc1ccc(-c2cccs2)cc1NC(=O)c1ccc2c(c1)cc(C1CC1)n2CCN1CCOCC1 [ACY-1035] was tested, and the “Fold change /veh LOC101060620 /// MAPK8IP1 (11723275_at)” value was 0.98.
